Experimental data reported in patent US9409866B2, “Pyridine-2-amides useful as CB2 agonists” (Hoffmann-La Roche Inc., priority 2012, dated 2016).
Where two headings read alike, the source gives them in different places.

Legend:
human CB2 receptors = human CB2 receptors (Homo sapiens (Human), UniProt P34972); experiment: functional cAMP assay, CHO cells expressing human CB2; assay type: cell-based
Outline: (§1)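 Readout: TR-FRET cAMP detection at 730 and 645 nm with 355 nm excitation, quantified from a standard curve spanning 10 μM to 0.13 nM cAMP. Human CB1- or CB2-expressing CHO cells were exposed to compound for 30 min at 30 °C in KRB buffer containing 1 mM IBMX. EC50 derived.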

human CB1 receptors = human CB1 receptors (Homo sapiens (Human), UniProt P21554); experiment: functional cAMP assay, CHO cells expressing human CB1; assay type: cell-based
Sequence of human CB1 receptors (P21554 whole entry): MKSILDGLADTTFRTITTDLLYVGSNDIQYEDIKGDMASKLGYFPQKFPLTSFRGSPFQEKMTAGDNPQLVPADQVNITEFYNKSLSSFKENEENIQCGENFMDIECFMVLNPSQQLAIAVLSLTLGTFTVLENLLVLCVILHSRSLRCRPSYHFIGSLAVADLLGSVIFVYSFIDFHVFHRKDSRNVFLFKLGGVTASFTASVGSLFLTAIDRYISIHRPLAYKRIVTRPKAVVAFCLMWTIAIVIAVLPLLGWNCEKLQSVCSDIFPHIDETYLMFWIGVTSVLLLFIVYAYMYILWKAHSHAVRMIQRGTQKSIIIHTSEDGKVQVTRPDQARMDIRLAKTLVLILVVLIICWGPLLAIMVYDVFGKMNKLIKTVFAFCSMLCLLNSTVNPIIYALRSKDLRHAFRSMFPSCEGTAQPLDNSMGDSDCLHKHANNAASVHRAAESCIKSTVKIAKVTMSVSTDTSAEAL
Outline: as §1

[1] = functional cAMP assay, CHO cells expressing human CB1; read-out: Human CB1 EC50

Sequence of human CB2 receptors (P34972 whole entry): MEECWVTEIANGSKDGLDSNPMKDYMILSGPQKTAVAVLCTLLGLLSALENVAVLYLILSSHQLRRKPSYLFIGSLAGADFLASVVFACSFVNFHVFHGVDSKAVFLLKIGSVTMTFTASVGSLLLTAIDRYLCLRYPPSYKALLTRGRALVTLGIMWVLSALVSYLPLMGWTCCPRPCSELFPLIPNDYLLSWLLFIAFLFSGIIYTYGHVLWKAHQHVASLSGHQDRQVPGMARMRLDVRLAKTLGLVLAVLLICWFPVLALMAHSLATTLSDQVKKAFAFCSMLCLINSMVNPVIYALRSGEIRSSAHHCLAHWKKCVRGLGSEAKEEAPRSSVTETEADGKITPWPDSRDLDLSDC

| SMILES | EC50 (human CB2 receptors; read-out: Human CB2 EC50) | EC50 (human CB1 receptors; [1]) | EC50 (human CB2 receptors; Human CB2 EC50 (uM)) | EC50 (human CB1 receptors; read-out: Human CB1 EC50; functional cAMP assay, CHO cells expressing human CB1) | EC50 (human CB1 receptors; Human CB1 EC50 (uM), functional cAMP assay, CHO cells expressing human CB1) |
| --- | --- | --- | --- | --- | --- |
| CNC(=O)[C@@H](NC(=O)c1cc(OCC(F)(F)F)c(Cl)cn1)C(C)(C)C [Example 24, 5-Chloro-4-(2,2,2-trifluoro-ethoxy)-pyridine-2-carboxylic acid ((S)-2,2-dimethyl-1-methylcarbamoyl-propyl)-amide] | 0.0098 µM | > 10 µM |  |  |  |
| Cc1nc(C(C)(CS(C)(=O)=O)NC(=O)c2cc(O[C@@H](C)C(F)(F)F)c(N3CC(F)(F)C3)cn2)no1 (stereo partly drawn) [Example 102, 5-(3,3-Difluoro-azetidin-1-yl)-4-((S)-2,2,2-trifluoro-1-methyl-ethoxy)-pyridine-2-carboxylic acid [2-methanesulfonyl-1-methyl-1-(5-methyl-[1,2,4]oxadiazol-3-yl)-ethyl]-amide] | 0.116 µM | > 10 µM |  |  |  |
| Cc1nc(C(C)(CS(C)(=O)=O)NC(=O)c2cc(O[C@@H](C)C(F)(F)F)c(C3(O)CCC3)cn2)no1 (stereo partly drawn) [Example 126, 5-(1-hydroxycyclobutyl)-N-[2-(5-methyl-1,2,4-oxadiazol-3-yl)-1-methylsulfonylpropan-2-yl]-4-[(2S)-1,1,1-trifluoropropan-2-yl]oxypyridine-2-carboxamide] | 0.219 µM | > 10 µM |  |  |  |
| CNC(=O)CC1(NC(=O)c2cc(OCC(F)(F)F)c(N3CC(F)(F)C3)cn2)COC1 [Example 233, 5-(3,3-difluoroazetidin-1-yl)-N-[3-[2-(methylamino)-2-oxoethyl]oxetan-3-yl]-4-(2,2,2-trifluoroethoxy)pyridine-2-carboxamide] | 0.915 µM | > 10 µM |  |  |  |
| CNC(=O)[C@@H](NC(=O)c1cc(OC2COC2)c(Cl)cn1)C(C)(C)C [Example 23, 5-Chloro-4-(oxetan-3-yloxy)-pyridine-2-carboxylic acid ((S)-2,2-dimethyl-1-methylcarbamoyl-propyl)-amide] | 0.205 µM | > 10 µM |  |  |  |
| Cc1csc(C(C)(CC2CC2)NC(=O)c2cc(OCC(F)(F)F)c(C3CC3)cn2)n1 (stereo not shown) [Example 158, 5-cyclopropyl-N-[1-cyclopropyl-2-(4-methyl-1,3-thiazol-2-yl)propan-2-yl]-4-(2,2,2-trifluoroethoxy)pyridine-2-carboxamide] | 0.0958 µM | > 10 µM |  |  |  |
| CC(CC(N)=O)(NC(=O)c1cc(OCC(F)(F)F)c(C2(F)CCC2)cn1)C1CC1 (stereo not shown) [Example 300, N-(4-amino-2-cyclopropyl-4-oxobutan-2-yl)-5-(1-fluorocyclobutyl)-4-(2,2,2-trifluoroethoxy)picolinamide] | 0.0067 µM | > 10 µM |  |  |  |
| CNC(=O)C(C)(NC(=O)c1cc(OCC(F)(F)F)c(C2CC2)cn1)c1noc(C)n1 (single isomer, unassigned) [Example 188, 5-cyclopropyl-N-[1-(methylamino)-2-(5-methyl-1,2,4-oxadiazol-3-yl)-1-oxopropan-2-yl]-4-(2,2,2-trifluoroethoxy)pyridine-2-carboxamide] |  |  | 0.0206 µM | > 10 µM |  |
| CN(C(=O)c1cc(-c2cccc(Cl)c2)ccn1)C(C)(C)C [Example 86, 4-(3-Chloro-phenyl)-pyridine-2-carboxylic acid tert-butyl-methyl-amide] | 0.145 µM | > 10 µM |  |  |  |
| Cc1nc(C(C)(NC(=O)c2cc(OCC(F)(F)F)c(C3CC3)cn2)C(=O)N2CCC2)no1 (stereo not shown) [Example 182, N-[1-(azetidin-1-yl)-2-(5-methyl-1,2,4-oxadiazol-3-yl)-1-oxopropan-2-yl]-5-cyclopropyl-4-(2,2,2-trifluoroethoxy)pyridine-2-carboxamide] | 0.0054 µM | > 10 µM |  |  |  |
| CNC(=O)C(NC(=O)c1cc(OCC(F)(F)F)c(C2CC2)cn1)C(C)(C)C (single isomer, unassigned) [Example 224, 5-cyclopropyl-N-[3,3-dimethyl-1-(methylamino)-1-oxobutan-2-yl]-4-(2,2,2-trifluoroethoxy)pyridine-2-carboxamide] |  |  | 0.0573 µM |  | > 10 µM |
